Legend:
[1] = target: His6-ERα298-554 WT (ERα ligand-binding domain) (Homo sapiens (Human), UniProt P03372); assay: Test A: biochemical antagonist activity, LanthaScreen TR-FRET ERα coactivator assay, WT; conditions: protocol with 3 nM estradiol; read-out: Antagonism WT IC50
How it was run: (§1)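 His6-ERα LBD (aa 298–554), 0.5 nM, with Tb-anti-His6 antibody, 250 nM PGC1a peptide and 3 nM (or 10 nM) estradiol in pH 7.4 potassium phosphate/DTT buffer; incubated with compound overnight at room temperature. IC50 from 4-parameter logistic fit of TR-FRET 520:495 nm ratio.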

[2] = target: His6-ERα298-554 D538G mutant (ERα ligand-binding domain) (Homo sapiens (Human), UniProt P03372, D538G); assay: Test A: biochemical antagonist activity, LanthaScreen TR-FRET ERα coactivator assay, D538G mutant; conditions: protocol with 3 nM estradiol; read-out: Antagonism D538G IC50
Chain of His6-ERα298-554 D538G mutant (ERα ligand-binding domain) (P03372 298-554 D538G): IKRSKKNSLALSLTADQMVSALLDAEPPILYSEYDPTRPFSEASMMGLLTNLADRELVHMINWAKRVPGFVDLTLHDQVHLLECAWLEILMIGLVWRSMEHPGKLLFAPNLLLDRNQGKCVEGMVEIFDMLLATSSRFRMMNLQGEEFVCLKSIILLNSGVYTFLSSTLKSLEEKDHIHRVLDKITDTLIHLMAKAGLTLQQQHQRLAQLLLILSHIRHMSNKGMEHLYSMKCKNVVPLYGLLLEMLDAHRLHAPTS
How it was run: as §1

[3] = target: His6-ERα298-554 Y537S mutant (ERα ligand-binding domain) (Homo sapiens (Human), UniProt P03372, Y537S); assay: Test A: biochemical antagonist activity, LanthaScreen TR-FRET ERα coactivator assay, Y537S mutant; conditions: protocol with 3 nM estradiol; read-out: Antagonism Y537S IC50
Chain of His6-ERα298-554 Y537S mutant (ERα ligand-binding domain) (P03372 298-554 Y537S): as the sequence (P03372 298-554 D538G) above, with Y240S, G241D counted along it
How it was run: as §1

ERα in MCF7 cells = ERα in MCF7 cells (Homo sapiens (Human), UniProt P03372); assay: Test C: estrogen receptor degradation activity, ERα in cell western assay in MCF7 cells; format: cell-based; conditions: for DC50: 4 hours post compound addition, ERα in cell western, read-out: Degradation IC50; for % Degradation at 3 μM: 4 hours, relative to fulvestrant
Chain of ERα in MCF7 cells (P03372 whole entry): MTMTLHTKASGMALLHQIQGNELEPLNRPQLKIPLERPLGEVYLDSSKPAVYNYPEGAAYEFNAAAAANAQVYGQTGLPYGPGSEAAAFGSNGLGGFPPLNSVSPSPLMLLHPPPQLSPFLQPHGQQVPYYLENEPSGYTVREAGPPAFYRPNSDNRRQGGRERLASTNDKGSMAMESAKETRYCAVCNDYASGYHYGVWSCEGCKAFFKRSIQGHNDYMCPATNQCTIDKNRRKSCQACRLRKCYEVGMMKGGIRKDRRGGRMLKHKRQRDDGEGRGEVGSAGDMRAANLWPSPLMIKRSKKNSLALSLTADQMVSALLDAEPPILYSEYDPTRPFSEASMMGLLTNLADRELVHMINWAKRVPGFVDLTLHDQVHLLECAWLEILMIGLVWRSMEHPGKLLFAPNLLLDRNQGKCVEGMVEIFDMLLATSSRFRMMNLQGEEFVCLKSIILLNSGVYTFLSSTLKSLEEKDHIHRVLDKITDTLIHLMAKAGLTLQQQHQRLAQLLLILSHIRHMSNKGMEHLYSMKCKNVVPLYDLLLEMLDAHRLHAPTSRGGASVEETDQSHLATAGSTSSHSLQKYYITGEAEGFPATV
How it was run: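 Steps: seed MCF7 in phenol red-free medium containing 5% charcoal-dextran stripped FBS; next day add compound, final 3–0.000018 μM; after 4 h fix with 5% formalin plus 0.1% Triton; stain ERα overnight, then secondary at 37 °C for 60 min with Syto-64 at 2 μM; scan green and red intensities.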

Chain of His6-ERα298-554 WT (ERα ligand-binding domain) (P03372 298-554): as the sequence (P03372 298-554 D538G) above, with G241D counted along it

Structure (SMILES) | IC50 [1] [nM] | IC50 [2] [nM] | IC50 [3] [nM] | DC50 (ERα in MCF7 cells) [nM] | % Degradation at 3 μM (ERα in MCF7 cells) [%]
Oc1ccc2c(c1)C(c1ccc(O[C@H]3CCN(CCCF)C3)cc1)=C(c1cccc(F)c1Cl)CCS2 [Example 170, 4-(2-chloro-3-fluoro-phenyl)-5-[4-[(3S)-1-(3-fluoropropyl)pyrrolidin-3-yl]oxyphenyl]-2,3-dihydro-1-benzothiepin-7-ol] | 18 | 129 | 82 | 1 | 81
Cc1ccc(C2=C(c3ccc(O[C@H]4CCN(CCCF)C4)cc3)c3cc(O)ccc3SCC2)c(F)c1 [Example 171, 4-(2-fluoro-4-methyl-phenyl)-5-[4-[(3S)-1-(3-fluoropropyl)pyrrolidin-3-yl]oxyphenyl]-2,3-dihydro-1-benzothiepin-7-ol] | 24 | 140 | 87 | 0.2 | 85
Cc1c(Cl)cccc1C1=C(c2ccc(O[C@H]3CCN(CCCF)C3)cc2)c2cc(O)ccc2SCC1 [Example 173, 4-(3-chloro-2-methyl-phenyl)-5-[4-[(3S)-1-(3-fluoropropyl)pyrrolidin-3-yl]oxyphenyl]-2,3-dihydro-1-benzothiepin-7-ol] | 21 | 145 | 87 | 4 | 82
Oc1ccc2c(c1)C(c1ccc(O[C@H]3CCN(CCCF)C3)cc1)=C(c1ccc(F)c(Cl)c1)CCS2 [Example 174, 4-(3-chloro-4-fluoro-phenyl)-5-[4-[(3S)-1-(3-fluoropropyl)pyrrolidin-3-yl]oxyphenyl]-2,3-dihydro-1-benzothiepin-7-ol] | 53 | 422 | 222 | 4 | 81
Oc1ccc2c(c1)C(c1ccc(O[C@H]3CCN(CCCF)C3)cc1)=C(c1ccc(F)cc1Cl)CCS2 [Example 175, 4-(2-chloro-4-fluoro-phenyl)-5-[4-[(3S)-1-(3-fluoropropyl)pyrrolidin-3-yl]oxyphenyl]-2,3-dihydro-1-benzothiepin-7-ol] | 20 | 116 | 65 | 0.3 | 83
Oc1ccc(C2=C(c3ccc(O[C@H]4CCN(CCCF)C4)cc3)c3cc(O)ccc3SCC2)cc1 [Example 177, 5-[4-[(3S)-1-(3-fluoropropyl)pyrrolidin-3-yl]oxyphenyl]-4-(4-hydroxyphenyl)-2,3-dihydro-1-benzothiepin-7-ol] | 4 | 41 | 29 | 0.2 | 75
Cc1cc(C2=C(c3ccc(O[C@H]4CCN(CCCF)C4)cc3)c3cc(O)ccc3SCC2)ccc1Cl [Example 179, 4-(4-chloro-3-methyl-phenyl)-5-[4-[(3S)-1-(3-fluoropropyl)pyrrolidin-3-yl]oxyphenyl]-2,3-dihydro-1-benzothiepin-7-ol] | 12 | 114 | 80 | 4 | 80
Cc1cc(F)ccc1C1=C(c2ccc(O[C@H]3CCN(CCCF)C3)cc2)c2cc(O)ccc2SCC1 [Example 180, 4-(4-fluoro-2-methyl-phenyl)-5-[4-[(3S)-1-(3-fluoropropyl)pyrrolidin-3-yl]oxyphenyl]-2,3-dihydro-1-benzothiepin-7-ol] | 7 | 36 | 16 | 3 | 80
Oc1ccc2c(c1)C(c1ccc(O[C@H]3CCN(CCCF)C3)cc1)=C(c1ccc(Cl)cc1F)CCS2 [Example 181, 4-(4-chloro-2-fluoro-phenyl)-5-[4-[(3S)-1-(3-fluoropropyl)pyrrolidin-3-yl]oxyphenyl]-2,3-dihydro-1-benzothiepin-7-ol] | 25 | 135 | 54 | 3 | 83
O=S1(=O)CCC(c2cccc(O)c2)=C(c2ccc(O[C@H]3CCN(CCCF)C3)cc2)c2ccc(O)cc21 [Example 228, 5-[4-[(3S)-1-(3-fluoropropyl)pyrrolidin-3-yl]oxyphenyl]-4-(3-hydroxyphenyl)-1,1-dioxo-2,3-dihydro-benzothiepin-8-ol] | 6 | 73 | 38 | 0.2 | 87
O=S1(=O)CCC(c2ccc(F)cc2Cl)=C(c2ccc(O[C@H]3CCN(CCCF)C3)cc2)c2ccc(O)cc21 [Example 229, 4-(2-chloro-4-fluoro-phenyl)-5-[4-[(3S)-1-(3-fluoropropyl)pyrrolidin-3-yl]oxyphenyl]-1,1-dioxo-2,3-dihydro-1λ^6-benzothiepin-8-ol] | 12 | 85 | 34 | 0.2 | 89
Cc1ccc(C2=C(c3ccc(O[C@H]4CCN(CCCF)C4)cc3)c3ccc(O)cc3S(=O)(=O)CC2)c(F)c1 [Example 230, 4-(2-fluoro-4-methyl-phenyl)-5-[4-[(3S)-1-(3-fluoropropyl)pyrrolidin-3-yl]oxyphenyl]-1,1-dioxo-2,3-dihydro-1λ^6-benzothiepin-8-ol] | 14 | 99 | 41 | 0.8 | 93
O=S1(=O)CCC(c2cccc(F)c2Cl)=C(c2ccc(O[C@H]3CCN(CCCF)C3)cc2)c2ccc(O)cc21 [Example 232, 4-(2-chloro-3-fluoro-phenyl)-5-[4-[(3S)-1-(3-fluoropropyl)pyrrolidin-3-yl]oxyphenyl]-1,1-dioxo-2,3-dihydro-1λ^6-benzothiepin-8-ol] | 16 | 99 | 78 | 0.2 | 95
O=S1(=O)CCC(c2ccc(Cl)cc2F)=C(c2ccc(O[C@H]3CCN(CCCF)C3)cc2)c2ccc(O)cc21 [Example 233, 4-(4-chloro-2-fluoro-phenyl)-5-[4-[(3S)-1-(3-fluoropropyl)pyrrolidin-3-yl]oxyphenyl]-1,1-dioxo-2,3-dihydro-1λ^6-benzothiepin-8-ol] | 20 | 128 | 70 | 0.2 | 94
Cc1cc(F)ccc1C1=C(c2ccc(O[C@H]3CCN(CCCF)C3)cc2)c2ccc(O)cc2S(=O)(=O)CC1 [Example 234, 4-(4-fluoro-2-methyl-phenyl)-5-[4-[(3S)-1-(3-fluoropropyl)pyrrolidin-3-yl]oxyphenyl]-1,1-dioxo-2,3-dihydro-1λ^6-benzothiepin-8-ol] | 9 | 59 | 33 | 0.2 | 90
Cc1c(Cl)cccc1C1=C(c2ccc(O[C@H]3CCN(CCCF)C3)cc2)c2ccc(O)cc2S(=O)(=O)CC1 [Example 235, 4-(3-chloro-2-methyl-phenyl)-5-[4-[(3S)-1-(3-fluoropropyl)pyrrolidin-3-yl]oxyphenyl]-1,1-dioxo-2,3-dihydro-1λ^6-benzothiepin-8-ol] | 13 | 100 | 83 | 0.9 | 95
Cc1cc(C2=C(c3ccc(O[C@H]4CCN(CCCF)C4)cc3)c3ccc(O)cc3S(=O)(=O)CC2)ccc1Cl [Example 236, 4-(4-chloro-3-methyl-phenyl)-5-[4-[(3S)-1-(3-fluoropropyl)pyrrolidin-3-yl]oxyphenyl]-1,1-dioxo-2,3-dihydro-1λ^6-benzothiepin-8-ol] | 8 | 54 | 29 | 0.3 | 91

Reference: US11149031B2, “Substituted N-(3-fluoropropyl)-pyrrolidine compounds, processes for their preparation and therapeutic uses thereof” (SANOFI, priority 2016, dated 2021)
